Test system: MCF-7 cells
Test: Morphological analysis (AO and DAPI staining)
Assay type: cell-based, human
Conditions: 24 h, IC50 or 2 × IC50
Procedure: The morphological changes of MCF-7 cell death induced by Ph3SnL1 and cisplatin were studied by AO (acridine orange) and DAPI (4′,6-diamidino-2-phenylindole) staining, and examined under a fluorescence microscope. Acridine orange can cross the cell membrane and viable and early apoptotic cells can be detected. Chromatin condensation, seen as dense green areas, or membrane blebbing, both appearing in apoptosis, is easily proven by AO staining. After 24 h of treatment (IC50 and 2 × IC50 concentrations) the cells were stained with acridine orange (3 μg/mL AO in PBS), and observed with a fluorescence microscope (Fluorescence microscope-Invitrogen EVOS FL 2 Auto 2 Cell Imaging System). On the other hand, for the DAPI assay 0.5 mL of Triton (0.1% in PBS) was added to the treated cells after the fixing the cells with 0.5 mL of 4% paraformaldehyde (PFA) for 8 min. Thereafter, 0.5 mL of DAPI solution was used to stain the cells for 5 min in the dark. The morphological characteristics were visualized under a fluorescence microscope (Fluorescence microscope-Invitrogen EVOS FL 2 Auto 2 Cell Imaging System).

## O=C(CCc1nc(-c2ccccc2)c(-c2ccccc2)o1)[O][Sn]([c]1ccccc1)([c]1ccccc1)[c]1ccccc1 [Ph3SnL1, (3-(4,5-Diphenyloxazol-2-yl)propanoato)triphenyltin(IV)]
  morphological changes (AO and DAPI staining): notable morphological changes

Source: paper PMC8198038, “In Vitro Evaluation of Antiproliferative Properties of Novel Organotin(IV) Carboxylate Compounds with Propanoic Acid Derivatives on a Panel of Human Cancer Cell Lines” (Molecules, 2021)
